This is an account of results in PubChem BioAssay (NCI).

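Interpolation was linear, between the two tested concentrations surrounding the appropriate level; five concentrations were tested over 48 hours in 96-well plates. Here, GI50 denotes the concentration required for 50% inhibition of growth. TGI is the concentration that stops growth completely.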

Holding throughout (experiment): DTP human tumour cell line panel, 48 h
The test system of assay [1] is SR leukemia.
Assay [2] concerns OVCAR-8 ovarian.
Assay [3] has as its system MDA-MB-435.
Assay [4] deals with ACHN renal.
Assay [5] relates to U251 CNS.
The subject of assay [6] is A498 renal.
In assay [7] the test system is SF-268 CNS.
Assay [8] concerns SNB-19 CNS.
The test system of assay [9] is MDA-N.

For orientation: TGI means the concentration giving total growth inhibition. A word on the GI50: it is the concentration that inhibits growth by half.

Regarding `CN1C2CCC1C(CO)C(=O)C2` (stereo not drawn), the TGI is 75.7 µM in assay [1]; more than 100 µM in assay [2]; more than 100 µM in [3]; more than 100 µM in assay [4]; more than 100 µM in assay [5]; more than 100 µM in assay [6]. The compound also had a TGI in assay [7] of more than 100 µM.

Regarding `CC(=O)N=S(NC(=O)c1ccc(C)cc1)C(Cl)(Cl)Cl` (stereo not drawn), the TGI is 33.1 µM in assay [2]; more than 100 µM in assay [8]; 40.7 µM in assay [3]; more than 100 µM in [4]; 59.3 µM in [5]; more than 100 µM in assay [9]. The same compound displayed a concentration for total growth inhibition (TGI) in assay [7] of more than 100 µM.

On to `COc1ccc(C(=O)/C=C/c2ccc(OCCCCCCCCCCOc3ccc(/C=C/C(=O)c4ccc(OC)c(OC)c4)cc3)cc2)c(OC)c1`, for which the TGI in assay [1], in assay [2], in [8], in assay [3], in assay [4] and in assay [5] was more than 100 µM throughout. The TGI in assay [9] and in assay [7] was more than 100 µM each time.

As for `Nc1cc2nc(-c3ccccc3)cn2cn1`, the TGI in assay [2], in assay [8], in assay [3], in assay [4], in [5] and in [9] was more than 100 µM each time. Moreover, the TGI is 80.3 µM in assay [6] and more than 100 µM in [7].

Turning to `CC(C)(C)[Si](C)(C)OC1CCOC1(O)c1ccccn1` (stereo not drawn), the TGI in [2], in assay [8], in assay [3], in assay [4], in assay [5] and in assay [9] was more than 100 µM each time. For the same compound, the TGI in assay [6] and in [7] was more than 100 µM in each case.

For `CN(C)CN1C(=O)/C(=N\n2c(-c3ccncc3)n[nH]c2=S)c2ccccc21`, the TGI is 65.2 µM in assay [2]; more than 100 µM in assay [8]; 30.2 µM in assay [3]; more than 100 µM in assay [4]; more than 100 µM in assay [5]; 31.8 µM in [9]. Moreover, the TGI in [6] and in [7] was more than 100 µM in each case.

On to `O/N=C/[C@H]1COC2(CCCCC2)O1`, for which the total growth inhibition concentration (TGI) in assay [2], in [8], in [3], in assay [4], in [5] and in assay [9] was more than 100 µM in each case. Besides, the TGI in assay [6] and in [7] was more than 100 µM throughout.

For the compound `Cc1ccc(S(=O)(=O)N2CCc3cc(O)c([N+](=O)[O-])cc32)cc1`, the TGI in assay [2], in assay [8], in [3], in assay [4], in assay [5] and in assay [9] was more than 100 µM in each case. Moreover, the TGI in assay [6] and in [7] was more than 100 µM in each case.

With `CCc1ccc(OCc2ccccc2C(=O)Nc2ccc3nc(C)cc(N)c3c2)cc1`, the GI50 was 1.68 µM in assay [2], 1.43 µM in assay [3], 1.73 µM in assay [4] and 1.5 µM in assay [6]. Moreover, the TGI in assay [2] worked out at 4.61 µM; in [3] it was 2.77 µM; in [4] it was 3.13 µM; in assay [6], 3 µM.

Turning to `O=c1cccc2n1CC1CNCC2C1` (stereo not drawn), the concentration for total growth inhibition (TGI) in [2], in assay [8], in assay [3], in assay [4], in assay [5] and in assay [9] was more than 100 µM each time. The TGI in assay [6] and in [7] was more than 100 µM throughout.

In the case of `C[C@@](Br)(C(=O)O)[C@H](Br)C(=O)O`, the TGI in assay [2], in assay [8], in [3], in assay [4], in assay [5] and in [9] was more than 100 µM in each case. Also, the TGI in assay [6] and in assay [7] was more than 100 µM in each case.

For `Fc1ccc(OCc2ccc3nc(-c4ccccc4)c(Cl)nc3c2)cc1`, the TGI was 40.8 µM in assay [1]; more than 100 µM in assay [2]; more than 100 µM in assay [3]; 71.7 µM in assay [4]; 39 µM in assay [5]; more than 100 µM in [9]. Also, the TGI in assay [6] was 50.1 µM; in assay [7] it was more than 100 µM.

Turning to `CCC1(c2ccc(OC)c(OC)c2)CCN2C(=O)C(O)CC21` (stereo not drawn), the TGI in assay [1], in assay [8], in assay [3], in assay [4], in assay [5] and in [9] was more than 100 µM throughout. This compound came in with a TGI in [7] of more than 100 µM.

For the compound `CC12CCC(=O)[C@@]1(C)CCCC2=O` (stereo partly drawn), the TGI in assay [1], in [2], in assay [8], in assay [4], in assay [5] and in assay [9] was more than 100 µM each time. In assay [7], this compound gave a TGI of more than 100 µM.

Regarding `COc1cccc(Nc2nc3c([nH]2)c(=O)n(C)c(=O)n3C)c1`, the TGI in [1], in assay [2], in [3], in assay [9] and in assay [7] was more than 10 µM in each case.

For `Cc1cccc2c(N)c3cccc(C(=O)NCC[N+](C)(C)[O-])c3nc12`, the TGI in assay [2] was 36.6 µM; in assay [8], more than 100 µM; in assay [3], 41.5 µM; in [4], 77.9 µM; in [5], more than 100 µM; in assay [9], 42.7 µM. The compound further had a TGI in assay [7] of more than 100 µM.

For `C=C1C[C@@H]2CC[C@@]34CC5O[C@H]6C(O[C@H]7CC[C@H](CC(=O)O[C@@H]8[C@@H](C)[C@@H]9O[C@@H]%10C[C@]%11(C[C@@H]%12O[C@]%13(C[C@H](C)[C@@H]%14O[C@@H]%15CC(C(COC(C)=O)OC(C)=O)O[C@@H]%15C[C@@H]%14O%13)C[C@H](C)[C@@H]%12O%11)O[C@@H]%10C[C@@H]9O[C@H]8CC8O[C@@H](CC[C@@H]1O2)C[C@@H](C)C8(O)CO)O[C@@H]7[C@@H]6O3)[C@H]5O4` (stereo partly drawn), the total growth inhibition concentration (TGI) in [1] was more than 1 µM; in [2], more than 1 µM; in assay [8], more than 1 µM; in assay [3], more than 0.879 µM; in [4], more than 1 µM; in assay [5], more than 1 µM. The TGI in assay [6] was more than 1 µM; in assay [7], more than 0.955 µM.

For the compound `CCOC(=O)C(NC(=O)CC)(Nc1ccccc1F)C(F)(F)F` (stereo not drawn), the TGI in [1], in [2], in [8], in assay [3], in assay [4] and in assay [5] was more than 100 µM throughout. Moreover, the total growth inhibition concentration (TGI) in assay [9] and in assay [7] was more than 100 µM each time.

`CC(=O)OC1COC(N2c3ccccc3[C@@H]3CCc4c([nH]c5ccccc45)[C@@H]32)C(OC(C)=O)C1OC(C)=O` (mixture of isomers): the concentration for total growth inhibition (TGI) is more than 100 µM in [1]; more than 100 µM in assay [8]; more than 100 µM in assay [3]; more than 100 µM in [5]; more than 100 µM in assay [9]; 62 µM in assay [6]. For the same compound, the TGI in assay [7] was more than 100 µM.

Regarding `Nn1nnc2ccccc21`, the TGI in [1], in assay [2], in assay [8], in assay [3], in [4] and in assay [5] was more than 100 µM in each case. Moreover, the TGI in assay [6] and in [7] was more than 100 µM in each case.

For `CCOC(=O)c1c(-c2ccc(OC)cc2)c(C#N)c(=S)n(C2OC(CO)C(O)C(O)C2O)c1C` (stereo not drawn), the TGI in assay [1], in [2], in assay [8], in assay [3], in [5] and in assay [9] was more than 100 µM throughout. For the same compound, the TGI in assay [6] and in [7] was more than 100 µM in each case.

`COc1ccc(CCn2ccc(=O)c(O)c2C)cc1OC`: the TGI in [1], in assay [2], in assay [8], in [3], in assay [4] and in assay [5] was more than 100 µM in each case. Also, the TGI is more than 100 µM in [9] and 9.92 µM in [7].

For the compound `COc1ccccc1Cn1c2c(c3cc(O)ccc31)C(=O)c1ccccc1C2=O`, the TGI is more than 100 µM in assay [1]; 61.9 µM in assay [2]; more than 100 µM in assay [8]; more than 100 µM in assay [3]; 64.9 µM in [5]; more than 100 µM in [9]. For the same compound, the TGI in assay [6] was more than 100 µM; in assay [7], 86.1 µM.

On to `Cn1c(=O)c2[nH]c(Nc3cccc(Cl)c3)nc2n(C)c1=O`, for which the TGI in assay [2], in [3], in assay [9] and in assay [7] was more than 10 µM in each case.

Take `CC1=NN(c2cccc(Cl)c2)C2(C1=Cc1ccc(N(C)C)cc1)C(Cl)C(=O)N2c1nc2ccccc2s1` (stereo not drawn): the TGI is more than 100 µM in assay [1]; more than 100 µM in assay [2]; 72.3 µM in assay [3]; more than 100 µM in [4]; more than 100 µM in assay [5]; more than 100 µM in [9]. Further, the concentration for total growth inhibition (TGI) is more than 100 µM in [6] and 52.4 µM in assay [7].

`O=C(O)CCSc1ncnc2nc[nH]c12`: the total growth inhibition concentration (TGI) in assay [2], in assay [8], in [3], in assay [4], in [5] and in [9] was more than 100 µM throughout. Moreover, the TGI in [6] and in assay [7] was more than 100 µM in each case.

As for `CC1CCc2sc3[nH]c(=S)n(C)c(=O)c3c2C1` (stereo not drawn), the concentration for total growth inhibition (TGI) in assay [1], in assay [2], in assay [8], in assay [3], in [4] and in assay [5] was more than 100 µM each time. The TGI in assay [9] and in assay [7] was more than 100 µM each time.

Take `Clc1sc(Cl)c2c1[C@H](Br)C[C@@H]2Cl`: the TGI was 39.5 µM in [1]; 99 µM in [2]; more than 100 µM in [8]; 40.8 µM in assay [3]; 37.4 µM in assay [4]; 83.8 µM in assay [5]. For the same compound, the figures for the TGI in assay [9] and in [7] were more than 100 µM and 49.9 µM, respectively.

For the compound `CC1OC2OC3C(OCC(O)C3O)OC(=O)[C@]34CCC(C)(C)CC3C3=CCC5[C@@]6(C)C[C@H](O)[C@H](OC7OC(CO)C(O)C(O)C7OC7OC(COC(=O)CC(C)(O)CC(=O)OC1C(OC1OC(CO)C(O)C(O)C1O)C2O)C(O)C(O)C7O)[C@@](C)(CO)C6CC[C@@]5(C)[C@]3(C)CC4` (stereo partly drawn), the TGI in assay [1] is 12.4 µM; in [2], 13.1 µM; in [8] it was 16 µM; in assay [3], 4.71 µM; in assay [4], 8.36 µM; in assay [5] it was 9.26 µM. The TGI in assay [9] was 2.65 µM; in [7], 10.5 µM.

As to `CN(C)C(=O)/N=C1\SC(=Nc2ccccc2)C(=Nc2ccccc2)N1c1ccc([N+](=O)[O-])cc1`, the TGI in assay [1], in [2], in [8], in [3], in [5] and in assay [9] was more than 100 µM each time. Besides, the TGI in assay [6] was more than 100 µM.

As for `COC(=O)[C@@H]1[C@H]2CC[C@]3(C)[C@@H](OC(C)=O)CC[C@H]3[C@@H]2CC[C@H]1C1(C)SCCS1`, the TGI in assay [2] is 70.6 µM; in [8], more than 100 µM; in assay [3], 35.3 µM; in [4] it was more than 100 µM; in assay [5], 54.4 µM; in assay [9], 47.3 µM. The TGI in assay [6] and in [7] was more than 100 µM throughout.

For `O=C1c2cc3c(cc2-c2c1c1cc(F)c(F)cc1c(=O)n2C[C@H](O)CO)OCO3`, the TGI was more than 100 µM in [1]; more than 100 µM in [2]; 0.422 µM in assay [3]; 0.254 µM in [6]; more than 100 µM in assay [7]. Further, the GI50 was 0.0724 µM in assay [2], 0.125 µM in [3], 0.0834 µM in assay [6] and 0.0411 µM in [7].
